These results are taken from ChEMBL document CHEMBL5053535, “Design, synthesis and biological evaluation of novel aminopyrazole- and 7-azaindole-based Nek1 inhibitors and their effects on zebrafish kidney development” (Bioorg Med Chem Lett, 2021).

Data set [1] deals with T1, Serine/threonine-protein kinase Chk1 (Homo sapiens) (UniProt O14757).
T1 sequence (whole entry): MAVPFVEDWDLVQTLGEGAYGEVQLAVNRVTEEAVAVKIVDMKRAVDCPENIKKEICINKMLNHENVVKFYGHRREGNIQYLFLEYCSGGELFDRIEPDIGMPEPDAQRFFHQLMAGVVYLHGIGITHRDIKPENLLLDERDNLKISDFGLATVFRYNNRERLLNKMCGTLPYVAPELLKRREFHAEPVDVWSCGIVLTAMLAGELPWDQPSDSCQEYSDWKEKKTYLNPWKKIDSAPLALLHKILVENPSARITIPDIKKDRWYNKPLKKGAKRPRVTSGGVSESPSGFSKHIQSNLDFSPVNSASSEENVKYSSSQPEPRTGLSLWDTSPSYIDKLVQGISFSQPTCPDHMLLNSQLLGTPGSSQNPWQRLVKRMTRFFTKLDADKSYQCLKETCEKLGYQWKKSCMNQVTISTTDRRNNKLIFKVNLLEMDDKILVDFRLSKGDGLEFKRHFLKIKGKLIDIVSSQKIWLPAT
In words: Inhibition of human recombinant full length N-terminal His tagged CHK1 expressed in baculovirus infected Sf21 insect cells using CHKtide as substrate assessed as residual activity at 1 uM pretreated for 20 mins followed by [33P]-ATP addition measured after 120 mins by radiometric hotspot kinase assay relative to control. The conditions noted are these: time 140.0 min.

For data set [2], the target named is Vascular endothelial growth factor receptor 2 (Homo sapiens) (UniProt P35968). Briefly: Inhibition of human recombinant C-terminal His6 tagged VEGFR2 (789 to 1356 residues) expressed in baculovirus infected insect cells assessed as residual activity at 1 uM pretreated for 20 mins followed by [33P]-ATP addition measured after 120 mins by radiometric hotspot kinase assay relative to control. Conditions: time 140.0 min.
Vascular endothelial growth factor receptor 2 (Homo sapiens), sequence (P35968 whole entry, the tested form may be a part): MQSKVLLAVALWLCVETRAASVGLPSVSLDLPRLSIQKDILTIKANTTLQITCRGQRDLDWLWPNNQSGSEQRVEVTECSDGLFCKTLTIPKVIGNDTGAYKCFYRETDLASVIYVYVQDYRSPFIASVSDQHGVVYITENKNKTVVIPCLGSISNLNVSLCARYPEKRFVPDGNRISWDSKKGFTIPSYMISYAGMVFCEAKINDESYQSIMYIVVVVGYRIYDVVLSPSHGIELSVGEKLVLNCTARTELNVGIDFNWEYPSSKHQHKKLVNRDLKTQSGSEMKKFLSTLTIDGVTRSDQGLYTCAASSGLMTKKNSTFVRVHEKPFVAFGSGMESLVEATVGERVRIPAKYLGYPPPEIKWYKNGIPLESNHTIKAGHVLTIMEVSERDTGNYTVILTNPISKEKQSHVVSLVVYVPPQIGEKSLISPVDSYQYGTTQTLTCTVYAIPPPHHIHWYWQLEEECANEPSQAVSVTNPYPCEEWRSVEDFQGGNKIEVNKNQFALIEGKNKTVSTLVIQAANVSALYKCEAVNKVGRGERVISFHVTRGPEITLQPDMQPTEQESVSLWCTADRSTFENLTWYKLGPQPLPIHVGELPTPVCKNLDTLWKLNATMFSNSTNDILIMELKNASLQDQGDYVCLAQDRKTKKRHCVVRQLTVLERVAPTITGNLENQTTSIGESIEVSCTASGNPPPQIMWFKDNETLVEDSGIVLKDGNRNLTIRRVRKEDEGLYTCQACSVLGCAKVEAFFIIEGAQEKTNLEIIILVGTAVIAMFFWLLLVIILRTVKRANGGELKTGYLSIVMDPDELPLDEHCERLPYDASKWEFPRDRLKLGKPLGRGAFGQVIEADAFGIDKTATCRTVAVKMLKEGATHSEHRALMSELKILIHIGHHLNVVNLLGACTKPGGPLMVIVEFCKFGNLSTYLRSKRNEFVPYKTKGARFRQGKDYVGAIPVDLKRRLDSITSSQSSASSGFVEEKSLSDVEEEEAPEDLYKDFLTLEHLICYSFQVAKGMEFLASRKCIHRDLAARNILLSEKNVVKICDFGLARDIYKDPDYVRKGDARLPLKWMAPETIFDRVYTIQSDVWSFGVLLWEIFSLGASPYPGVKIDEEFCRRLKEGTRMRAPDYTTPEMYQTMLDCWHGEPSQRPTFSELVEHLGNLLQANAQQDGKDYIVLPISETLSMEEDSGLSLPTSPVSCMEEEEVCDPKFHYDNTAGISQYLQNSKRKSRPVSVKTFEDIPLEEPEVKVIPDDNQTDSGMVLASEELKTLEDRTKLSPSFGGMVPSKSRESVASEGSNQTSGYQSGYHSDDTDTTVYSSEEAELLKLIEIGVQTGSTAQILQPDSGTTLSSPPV

Data set [3] concerns the target T2, Serine/threonine-protein kinase Nek1 (Homo sapiens, UniProt Q96PY6).
T2 sequence (Q96PY6 whole entry): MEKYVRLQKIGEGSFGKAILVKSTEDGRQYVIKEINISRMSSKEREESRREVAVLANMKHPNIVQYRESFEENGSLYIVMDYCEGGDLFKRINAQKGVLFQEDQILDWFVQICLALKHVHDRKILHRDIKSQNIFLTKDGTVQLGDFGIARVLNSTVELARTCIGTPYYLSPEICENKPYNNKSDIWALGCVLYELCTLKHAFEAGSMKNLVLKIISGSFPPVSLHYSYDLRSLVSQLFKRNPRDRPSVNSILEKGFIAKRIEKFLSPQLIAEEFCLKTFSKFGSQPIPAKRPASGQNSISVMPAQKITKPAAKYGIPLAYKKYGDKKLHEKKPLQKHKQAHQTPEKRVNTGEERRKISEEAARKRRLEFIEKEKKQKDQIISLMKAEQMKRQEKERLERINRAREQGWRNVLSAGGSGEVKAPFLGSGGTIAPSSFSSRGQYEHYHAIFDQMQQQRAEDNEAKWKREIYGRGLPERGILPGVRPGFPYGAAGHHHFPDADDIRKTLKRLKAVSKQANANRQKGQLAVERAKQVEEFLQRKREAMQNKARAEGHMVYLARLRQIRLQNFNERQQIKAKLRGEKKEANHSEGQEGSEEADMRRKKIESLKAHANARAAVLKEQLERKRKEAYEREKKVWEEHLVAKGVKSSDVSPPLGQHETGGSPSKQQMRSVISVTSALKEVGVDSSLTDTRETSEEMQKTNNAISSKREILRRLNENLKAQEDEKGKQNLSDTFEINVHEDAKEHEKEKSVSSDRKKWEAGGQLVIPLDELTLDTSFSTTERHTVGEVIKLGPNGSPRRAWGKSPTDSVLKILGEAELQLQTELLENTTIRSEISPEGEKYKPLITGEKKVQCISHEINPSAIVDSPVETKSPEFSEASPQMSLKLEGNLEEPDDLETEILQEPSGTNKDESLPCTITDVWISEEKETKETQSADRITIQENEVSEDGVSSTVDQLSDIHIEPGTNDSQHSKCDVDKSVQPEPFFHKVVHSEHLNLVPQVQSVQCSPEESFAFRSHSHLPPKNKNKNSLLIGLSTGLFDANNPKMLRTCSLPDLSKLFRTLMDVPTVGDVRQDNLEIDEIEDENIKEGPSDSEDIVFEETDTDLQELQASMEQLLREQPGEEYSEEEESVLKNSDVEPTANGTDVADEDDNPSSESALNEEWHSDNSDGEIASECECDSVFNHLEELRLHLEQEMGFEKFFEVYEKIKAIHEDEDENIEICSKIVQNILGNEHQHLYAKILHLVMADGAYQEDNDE
In words: Inhibition of human NEK1 using myelin basic protein as substrate assessed as residual activity in presence of [gamma-33P]-ATP by radiometric hotspot kinase assay relative to control.

A short description of data set [4]: Toxicity in zebra fish embryos assessed as lethality at 2.5 uM measured after 24 hrs relative to control. The class given is organism-based, Danio rerio. The conditions noted are these: zebrafish, in vivo, read-out: Activity.
For a further data set, the species on record is Danio rerio. Briefly: Toxicity in wild type zebra fish model of polycystic kidney disease assessed as increase in fluorescence intensity at 0.5 uM incubated for 48 hrs in presence of N-phenyl thiourea further treated with PT-yellow for 20 mins followed by dye washout and incubated in solution containing compound for 96 hrs by fluorescence imaging analysis. The format is organism-based. The conditions noted are these: zebrafish, in vivo.

A short description of data set [5]: Permeability across apical to basolateral side in human Caco-2 cells at pH 6.5 assessed as compound recovery at 1 uM. The format is ADME, cell-based. The conditions noted are these: Caco-2, pH 6.5, read-out: Drug recovery.

pIC50: −log10 of the molar value.

The pIC50 is the IC50 on a negative log10 scale, so that one unit is a factor of ten. On to `COC(=O)c1cccc(-c2cnc3[nH]cc(-c4cccnc4)c3c2)c1`, for which the Activity is 48.5% in data set [1], 34.3% in data set [2] and “Toxic” in the data set listed under Danio rerio. For the same compound, the negative-log IC50 (pIC50) in data set [3] was 7.94. In data set [4], the mortality at 24 h, 2.5 µM worked out at 100%. In addition, the recovery at 1 µM in data set [5] was determined as 0.4%.
